Laboratory results from patent publication US8354414B2, “Substituted bicyclic pyrimidines” (Cephalon, Inc, priority 2006, dated 2013).
Read-outs that look alike come from different tables or passages of the source.

Legend:
CDK5/GST-p25 = target: T1, CDK5/GST-p25 (Homo sapiens, UniProt Q00535); assay: Inhibition of CDK5/GST-p25 kinase activity (ELISA with time-resolved fluorescence readout); assay type: biochemical
T1 construct: The final construct, encoding for full-length human CDK5; made in house; host or cells: Sf21 insect cells (baculovirus co-infection)
T1 sequence (Q00535 whole entry): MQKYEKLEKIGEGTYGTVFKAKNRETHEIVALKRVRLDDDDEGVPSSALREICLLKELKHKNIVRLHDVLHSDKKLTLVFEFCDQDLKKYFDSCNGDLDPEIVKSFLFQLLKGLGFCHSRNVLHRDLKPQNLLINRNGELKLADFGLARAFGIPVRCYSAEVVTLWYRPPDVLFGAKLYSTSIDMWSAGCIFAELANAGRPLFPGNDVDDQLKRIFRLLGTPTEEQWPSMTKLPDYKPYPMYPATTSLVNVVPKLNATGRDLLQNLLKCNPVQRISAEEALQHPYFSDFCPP
T1 sequence (Q15078 108-307 partner limits assumed): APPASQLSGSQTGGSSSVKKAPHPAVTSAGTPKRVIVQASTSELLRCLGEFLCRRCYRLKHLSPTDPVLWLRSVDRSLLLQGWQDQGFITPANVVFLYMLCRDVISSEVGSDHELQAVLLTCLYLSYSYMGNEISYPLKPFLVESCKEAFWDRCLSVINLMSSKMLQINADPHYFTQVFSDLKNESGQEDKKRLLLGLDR
Method: Two recombinant baculoviral constructs were created, one encoding for human CDK5 and the other encoding for human p25 with an amino-terminal glutathione-S-transferase (GST) tag. PCR amplification of full-length CDK5 was performed utilizing human brain cDNA as a template and Pfu Turbo polymerase (Strategene). The PCR product from this reaction was subcloned into the baculoviral expression vector pFASTBAC1 (Gibco/BRL). The final construct, encoding for full-length human CDK5 (base pairs 25-903 of GenBank Accession #NM_004935), is 292 amino acids long with a predicted MW of 33.3 kDa.
For p25, the active truncated form of p35, amino acids 108-307 were PCR-amplified from human fetal brain cDNA (Clontech QUICK-Clone cDNA) using the Advantage 2 PCR system (Clontech). The PCR product was subcloned into the baculoviral transfer vector pFBGSTP (an engineered derivative of the baculoviral transfer vector pFASTBAC1). The final baculoviral construct encodes for base pairs 419-1021 of GenBank Accession #NM_003885, with an amino-terminal GST tag. The expressed GST-p25 is 444 amino acids long with a predicted MW of 50.3 kDa.
The CDK5/GST-p25 complex was generated by coexpression. Sf21 cells were cultured in TNM-FHS media at a density of 1.5×10^6 cells/mL and infected with each recombinant virus at MOI values of 5 (for CDK5) and 10 (for GST-p25). The cells were harvested 40 h after infection. For purification, the 100,000×g supernatant solution was used. Expression was confirmed by running samples on SDS-PAGE, followed by immunoblot analysis utilizing antibodies against CDK5 (anti-CDK5 (268-283); Calbiochem #219449) and p35 (Santa Cruz #sc820). The CDK5/GST-p25 complex was purified by glutathione affinity chromatography.
Compounds were tested for their ability to inhibit the kinase activity of recombinant baculoviral CDK5/GST-p25 using an enzyme-linked immunosorbent assay (ELISA) with time-resolved fluorescence (TRF) readout. Briefly, each 384-well FluoroNunc Maxisorp plate (Cat # 460372) plate was coated with 50 μl/well of 50 μg/ml substrate solution (recombinant GST-Rb(773-928)) in Tris-buffered saline (TBS). The CDK5/GST-p25 assay mixture (total volume=50 μl/well) consisting of 20 mM HEPES (pH 7.2), 10 μM ATP, 10 mM MgCl2, 5 mM EGTA, 25 mM β-glycerophosphate, 0.05% BSA, 2.5% DMSO, and various concentrations of test compound were then added to the assay plate. Enzyme (2 ng/ml CDK5/GST-p25) was added and the reaction was allowed to proceed at 37° C. for 20 minutes. Detection of the phosphorylated product was performed by adding 50 μl/well of phospho-Rb (Ser-780) antibody (Cell Signaling # 9307) diluted 1:10,000 in antibody dilution buffer (0.1% BSA in TBST). After 1-hour incubation at 37° C., 50 μl/well of Eu-Nl labelled anti-rabbit antibody (Wallac # AD0105; 1:50,000 in antibody dilution buffer) was added. Incubation at 37° C. then proceeded for 1 hour, followed by addition of 50 μl enhancement solution (Wallac #1244-105). The plate was gently agitated and after a few minutes, the fluorescence of the resulting solution was measured using a Multilabel Reader (Victor2 Model # 1420-018 or Envision Model # 2100). Inhibition data were analyzed using ActivityBase and IC50 curves were generated using XLFit 3.0.5.

His6-GSK-3β = target: T2, His6-GSK-3β (Homo sapiens, UniProt P49841); assay: Inhibition of His6-GSK-3β kinase activity (ELISA-based format, time-resolved fluorescence readout); assay type: biochemical; details: read-out: GSK3β IC50
T2 construct: made in house; host or cells: Sf21 insect cells (baculovirus)
T2 sequence (P49841 2-419): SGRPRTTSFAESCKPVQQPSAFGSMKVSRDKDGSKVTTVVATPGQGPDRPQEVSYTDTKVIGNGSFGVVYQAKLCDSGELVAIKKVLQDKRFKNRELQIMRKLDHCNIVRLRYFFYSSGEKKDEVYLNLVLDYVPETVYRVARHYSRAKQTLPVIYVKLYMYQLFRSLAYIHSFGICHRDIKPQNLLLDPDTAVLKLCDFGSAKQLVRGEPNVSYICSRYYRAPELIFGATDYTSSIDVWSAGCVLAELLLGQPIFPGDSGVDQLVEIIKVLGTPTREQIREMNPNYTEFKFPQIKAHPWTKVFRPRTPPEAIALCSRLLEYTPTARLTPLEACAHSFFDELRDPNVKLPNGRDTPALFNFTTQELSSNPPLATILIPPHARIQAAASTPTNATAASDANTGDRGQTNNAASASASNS
From the text: Full-length GSK-3β was amplified from a sequence-verified I.M.A.G.E. EST acquired from Research Genetics (Invitrogen, Clone ID# CSODB003YJ02). The final sequence-verified cDNA contained the coding region for a NH2-terminal tag, which encoded for 6 histidines and then eight vector-encoded amino acids prior to the start of GSK3β, which contained by # 43-1342 of Genbank Accession # NM_002093, encoding amino acids #2-419. The predicted molecular weight of the tagged, 435 amino acid, full-length protein is 48.5 kDa. The major structural element of this protein is the kinase domain, which is from amino acids #56-340. Recombinant baculoviral DNA was prepared by transposition in E. coli (BAC-TO-BAC system: Invitrogen) and the virus generated and amplified in Sf21 insect cells. A suspension culture of Sf21 cells was infected at an MOI of 0.7 and cell density of 1.5×10^6 cells/mL in Excell 420 serum-free media (JRH BioScience) and harvested 65 h after infection. The 100,000×g supernatant solution was used for purification. Expression was confirmed by running samples on SDS-PAGE, followed by immunoblot analysis utilizing both a Penta-HIS antibody (Qiagen #34660) and a GSK-3α/GSK-3β antibody (Calbiochem #368662, data not shown). The His6-tagged protein was purified to in one step by Ni-NTA affinity chromatography.
Inhibitory effects of compounds on baculoviral GSK-3β kinase activity were evaluated using an ELISA-based format in a 384-well FluoroNunc Maxisorp plate (Cat # 460372) with a time-resolved fluorescence readout. Briefly, each plate was coated with 50 μl/well of 20 μg/ml substrate solution (recombinant GST-Rb) in Tris-buffered saline (TBS). The GSK-3β assay mixture (total volume=50 μl/well) consisting of 50 mM HEPES (pH 7.2), 20 μM ATP, 10 mM MgCl2, 5 mM EGTA, 25 mM β-glycerophosphate, 0.05% BSA, 2.5% DMSO, and various concentrations of test compound were then added to the assay plate. Enzyme (200 ng/ml His6-GSK-3β) was then added and the reaction was allowed to proceed at 37° C. for 30 minutes. Detection of the phosphorylated product was performed by adding 50 μl/well of phospho-Rb (Ser-780) antibody (Cell Signaling # 9307) diluted 1:10,000 in antibody dilution buffer (0.1% BSA in TBST). After 1-hour incubation at 37° C., 50 μl/well of Eu-N1 labelled anti-rabbit antibody (Wallac # AD0105; 1:50,000 in antibody dilution buffer) was added. Incubation at 37° C. then proceeded for 1 hour, followed by addition of 50 μl enhancement solution (Wallac #1244-105). The plate was gently agitated and after a few minutes, the fluorescence of the resulting solution was measured using a Multilabel Reader (Victor2 Model # 1420-018 or Envision Model 2100). Inhibition data were analyzed using ActivityBase and IC50 curves were generated using XLFit 3.0.5.

SMILES | IC50 (CDK5/GST-p25; numeric bounds) [nM] | IC50 (His6-GSK-3β; class symbols) [nM] | IC50 (His6-GSK-3β; numeric bounds) [nM] | IC50 (CDK5/GST-p25; class symbols) [nM]
O=C1Nc2ccc(Cl)cc2C1c1nc(NCCN2CCOCC2)nc2c1CCC2 (stereo not drawn) [Example 324, 5-Chloro-3-[2-(2-morpholin-4-yl-ethylamino)-6,7-dihydro-5H-cyclopentapyrimidin-4-yl]-1,3-dihydro-indol-2-one] | > 3000 | – | > 3000 | –
N#Cc1ccc2c(c1)C(c1nc(N3CCCCC3)nc3nn(C4CCCC4)cc13)C(=O)N2 (stereo not drawn) [Example 131, 3-(2-cyclopentyl-6-piperidin-1-yl-2H-pyrazolo[3,4-d]pyrimidin-4-yl)-2-oxo-2,3-dihydro-1H-indole-5-carbonitrile] | – | < 300 | – | > 10000
N#Cc1ccc2c(c1)C(c1nc(NCCCN3CCCCC3)nc3nn(C4CCCC4)cc13)C(=O)N2 (stereo not drawn) [Example 170, 3[2-Cyclopentyl-6-(3-piperidin-1-yl-propylamino)-2H-pyrazolo[3,4-d]pyrimidin-4-yl]-2-oxo-2,3-dihydro-1H-indole-5-carbonitrile] | – | < 300 | – | 300 to 3000
N#Cc1ccc2c(c1)C(c1nc(N3CCNCC3)nc3c1CCC3)C(=O)N2 (stereo not drawn) [Example 354, 2-Oxo-3-(2-piperazin-1-yl-6,7-dihydro-5H-cyclopentapyrimidin-4-yl)-2,3-dihydro-1H-indole-5-carbonitrile] | – | 300 to 3000 | – | < 300
N#Cc1ccc2c(c1)C(c1nc(Cl)nc3nn(C4CCCC4)cc13)C(=O)N2 (stereo not drawn) [Example 113, 3-(6-Chloro-2-cyclopentyl-2H-pyrazolo[3,4-d]pyrimidin-4-yl)-2-oxo-2,3-dihydro-1H-indole-5-carbonitrile] | – | < 300 | – | > 10000
CN(C)CCNc1nc(C2C(=O)Nc3ccc(C#N)cc32)c2cn(C3CCCC3)nc2n1 (stereo not drawn) [Example 119, 3-(2-cyclopentyl-6-(2-dimethylamino-ethylamino)-2H-pyrazolo [3,4-d]pyrimidin-4-yl)-2-oxo-2,3-dihydro-1H-indole-5-carbonitrile] | – | < 300 | – | 300 to 3000
O=C1Nc2ccc(Cl)cc2C1c1nc(NCc2ccncc2)nc2c1CCC2 (stereo not drawn) [Example 326, 5-Chloro-3-{2-[(pyridin-4-ylmethyl)-amino]-6,7-dihydro-5H-cyclopentapyrimidin-4-yl}-1,3-dihydro-indol-2-one] | – | 300 to 3000 | – | > 10000
N#Cc1ccc2c(c1)C(c1nc(NCCN3CCOCC3)nc3nn(C4CCCC4)cc13)C(=O)N2 (stereo not drawn) [Example 177, 3-[2-Cyclopentyl-6-(2-morpholin-4-yl-ethylamino)-2H-pyrazolo[3,4-d]pyrimidin-4-yl]-2-oxo-2,3-dihydro-1H-indole-5-carbonitrile] | – | < 300 | – | < 300
N#Cc1ccc2c(c1)C(c1nc(NCCc3ccccn3)nc3nn(C4CCCC4)cc13)C(=O)N2 (stereo not drawn) [Example 125, 3-[2-cyclopentyl-6-(2-pyridin-2-yl-ethylamino)-2H-pyrazolo [3,4-d]pyrimidin-4-yl]-2-oxo-2,3-dihydro-1H-indole-5-carbonitrile] | – | < 300 | – | > 10000
CCCn1cc2c(C3C(=O)Nc4ccc(Br)cc43)nc(NCCC(F)(F)F)nc2n1 (stereo not drawn) [Example 192, 5-Bromo-3-[2-propyl-6-(3,3,3-trifluoro-propylamino)-2H-pyrazolo[3,4-d]pyrimidin-4-yl]-1,3-dihydro-indol-2-one] | – | < 300 | – | < 300

Results, then the compound that gave them:

IC50 (CDK5/GST-p25; numeric bounds) [nM] | IC50 (His6-GSK-3β; class symbols) [nM] | IC50 (His6-GSK-3β; numeric bounds) [nM] | IC50 (CDK5/GST-p25; class symbols) [nM] | SMILES
> 3000 | < 300 | – | – | CN(C)CCNc1nc(C2C(=O)Nc3ccc(Br)cc32)c2cn(C3CCCC3)nc2n1 (stereo not drawn) [Example 370, 5-Bromo-3-[2-cyclopentyl-6-(2-dimethylamino-ethylamino)-2H-pyrazolo [3,4-d]pyrimidin-4-yl]-1,3-dihydro-indol-2-one]
– | > 10000 | – | > 10000 | CCOCCNc1nc2c(c(C3C(=O)Nc4ccc(Br)cc43)n1)CCC2 (stereo not drawn) [Example 334, 5-Bromo-3-[2-(2-ethoxy-ethylamino)-6,7-dihydro-5H-cyclopentapyrimidin-4-yl]-1,3-dihydro-indol-2-one]
– | < 300 | – | < 300 | C[C@@H](O)CNc1nc(C2C(=O)Nc3ccc(Br)cc32)c2cn(C)nc2n1 (stereo partly drawn) [Example 358, 5-Bromo-3-[6-(2-(R)-hydroxy-propylamino)-2-methyl-2H-pyrazolo [3,4-d]pyrimidin-4-yl]-1,3-dihydroindol-2-one]
> 3000 | 300 to 3000 | – | – | CCCn1cc2c(C3C(=O)Nc4ccc(Br)cc43)nc(N[C@H]3CCNC3)nc2n1 (stereo partly drawn) [Example 362]
– | 300 to 3000 | – | 300 to 3000 | N#Cc1ccc2c(c1)C(c1nc(NCCN3CCOCC3)nc3c1CCC3)C(=O)N2 (stereo not drawn) [Example 341, 3-[2-(2-Morpholin-4-yl-ethylamino)-6,7-dihydro-5H-cyclopentapyrimidin-4-yl]-2-oxo-2,3-dihydro-1H-indole-5-carbonitrile]
– | > 10000 | – | > 10000 | CCCOCCNc1nc2c(c(C3C(=O)Nc4ccc(Br)cc43)n1)CCC2 (stereo not drawn) [Example 333, 5-Bromo-3-[2-(2-propoxy-ethylamino)-6,7-dihydro-5H-cyclopentapyrimidin-4-yl]-1,3-dihydro-indol-2-one]
– | 300 to 3000 | – | 300 to 3000 | CCCn1cc2c(C3C(=O)Nc4ccc(Br)cc43)nc(N[C@@H]3CCNC3)nc2n1 (stereo partly drawn) [Example 363]
– | 300 to 3000 | – | 300 to 3000 | CN(C)CCCNc1nc2c(c(C3C(=O)Nc4ccc(C#N)cc43)n1)CCC2 (stereo not drawn) [Example 342, 3-[2-(3-Dimethylamino-propylamino)-6,7-dihydro-5H-cyclopentapyrimidin-4-yl]-2-oxo-2,3-dihydro-1H-indole-5-carbonitrile]
